Our source for the IC50 values is patent publication US20220298115A1, “SMALL MOLECULE INHIBITORS OF ACETYL COENZYME A SYNTHETASE SHORT CHAIN 2 (ACSS2)” (Curadev Pharma Pvt. Ltd., priority 2019, published 2022).

Some results are limits rather than exact numbers.

In one experiment the target is T1, human ACSS2 (Homo sapiens, UniProt Q9NR19).
T1 construct: The cytosolic fraction of BT474 cells was used as a source of the ACSS2 enzyme; endogenous in cells; host or cells: BT474 cells (cytosolic fraction)
T1 sequence (Q9NR19 whole entry): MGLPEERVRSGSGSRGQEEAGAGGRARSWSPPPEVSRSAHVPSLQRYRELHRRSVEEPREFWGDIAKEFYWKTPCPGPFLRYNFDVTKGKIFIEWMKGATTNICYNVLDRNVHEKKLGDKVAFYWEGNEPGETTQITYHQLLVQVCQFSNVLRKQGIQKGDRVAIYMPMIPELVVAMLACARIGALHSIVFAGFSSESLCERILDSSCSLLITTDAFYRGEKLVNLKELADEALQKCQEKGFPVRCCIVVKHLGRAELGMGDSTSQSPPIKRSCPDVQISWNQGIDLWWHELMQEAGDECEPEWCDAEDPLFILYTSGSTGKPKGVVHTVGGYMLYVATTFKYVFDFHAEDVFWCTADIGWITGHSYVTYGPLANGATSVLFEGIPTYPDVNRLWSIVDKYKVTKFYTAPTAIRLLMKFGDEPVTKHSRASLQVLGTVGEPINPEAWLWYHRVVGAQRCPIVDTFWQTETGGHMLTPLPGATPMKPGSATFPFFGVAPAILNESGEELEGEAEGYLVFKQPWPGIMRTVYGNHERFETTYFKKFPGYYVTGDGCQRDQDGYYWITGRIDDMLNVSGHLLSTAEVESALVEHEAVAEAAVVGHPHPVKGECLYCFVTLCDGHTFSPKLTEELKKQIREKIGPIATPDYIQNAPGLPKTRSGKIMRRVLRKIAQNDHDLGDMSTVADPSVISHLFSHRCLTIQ
Nature of the experiment: ACSS2 enzyme assay (acetyl-CoA formation, LC-MS/MS). The note with it: cytosolic fraction of BT474 cells as ACSS2 source; 100 μM acetate, CoA and ATP; 2 h at 25° C.; read-out: Enzyme Activity (IC50 range). The format is biochemical. Summed up:
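Enzyme source was BT474 cytosolic fraction (100 ng), preincubated 5 min with compound in 25 mM Tris-HCl pH7.4, 1 mM MgCl2, 1 mM DTT, 0.05% Tween20, 1% DMSO. Reaction started with 100 μM each of acetate, CoA and ATP, 2 h at 25 °C, stopped with TCA; acetyl-CoA quantified by LC-MS/MS.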

The subject of experiment [1] is [14C] acetate incorporation in macromolecules, BT474 cells. As to the kind of experiment: Cell based [14C] acetate incorporation assay. Particulars: Homo sapiens, BT-474, 3 h at 37° C., read-out: Cellular Activity (IC50 range). In short, it runs like this: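 BT474 cells (4×10^4/well, plated overnight) were preincubated with compound for 10 min at 37°C in HBSS. They were then given 0.1 μCi [14C]acetate plus 10 μM unlabelled acetate (both in the added acetate solution) for 3 h at 37°C, 5% CO2. Label incorporated into macromolecules was harvested onto PEI-treated filters and counted by scintillation.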

Broadly, the IC50 is the point on the concentration scale where inhibition reaches its midpoint. For `CC[C@@H](O)CNC(=O)Nc1ccc2nc(-c3ccccc3)c(C)c(C(N)=O)c2c1` [Example 109, (R)-6-(3-(2-hydroxybutyl)ureido)-3-methyl-2-phenylquinoline-4-carboxamide], the IC50 at human ACSS2 is less than 100 nM; in experiment [1], not above 1000 nM.

Regarding `CCC(O)CNC(=O)Nc1ccc2nc(-c3ccccc3)c(-c3ccccc3)c(C(N)=O)c2c1` (centres unmarked) [Example 49, 6-(3-(2-hydroxybutyl)ureido)-2,3-diphenylquino-line-4-carboxamide], the IC50 (on human ACSS2; in experiment [1]) was less than 100 nM in each case.

With `CCC(O)CNC(=O)Nc1ccc2nc(C)c(-c3cccnc3)cc2c1` (centres unmarked) [Example 79, 1-(2-hydroxybutyl)-3-(2-methyl-3-(pyridin-3-yl)quinolin-6-yl)urea], the IC50 on human ACSS2 was less than 100 nM; in experiment [1], not above 1000 nM.

For the molecule `CCC(O)CNC(=O)Nc1ccc2nc(-c3ccccc3F)c(-c3ccccc3F)cc2c1` (centres unmarked) [Example 4, 1-(2,3-bis(2-fluorophenyl)quinolin-6-yl)-3-(2-hydroxybutyl) urea], the IC50 (on human ACSS2; in experiment [1]) was less than 100 nM in each case.

As to `CC[C@@H](O)CNC(=O)Nc1ccc2nc(-c3ccccc3)c(C)c(C(=O)NCc3ccccc3)c2c1` [Example 104, (R)-N-benzyl-6-(3-(2-hydroxybutyl)ureido)-3-methyl-2-phenylquinoline-4-carboxamide], the IC50 (on human ACSS2; in experiment [1]) was less than 100 nM each time.

With `CCC(O)CNC(=O)Nc1ccc2nc(-c3cn[nH]c3)c(-c3cn[nH]c3)cc2c1` (centres unmarked) [Example 22, 1-(2,3-di(1H-pyrazol-4-yl)quinolin-6-yl)-3-(2-hydroxybutyl) urea], the IC50 on human ACSS2 was not above 10000 nM; in experiment [1], more than 10000 nM.

With `CC[C@H](O)CNC(=O)Nc1ccc2nc(-c3ccccc3)c(-c3ccccc3)cc2c1` [Example 30, (S)-1-(2,3-diphenylquinolin-6-yl)-3-(2-hydroxybutyl) urea], the IC50 (on human ACSS2; in experiment [1]) was less than 100 nM in each case.

In the case of `CCC(CNC(=O)Nc1ccc2nc(C)c(-c3ccccc3)cc2c1)OC` (centres unmarked) [Example 77, 1-(2-methoxybutyl)-3-(2-methyl-3-phenylquinolin-6-yl)urea], the figures for the IC50 (at human ACSS2; in experiment [1]) were less than 100 nM and not above 1000 nM, respectively.

As for `CCC(O)CNC(=O)Nc1ccc2nc(-c3ccnc(OC)c3)c(-c3ccnc(OC)c3)cc2c1` (centres unmarked) [Example 9, 1-(2,3-bis(2-methoxypyridin-4-yl)quinolin-6-yl)-3-(2-hydroxybutyl) urea], the IC50 on human ACSS2 was more than 10000 nM; in experiment [1], not above 10000 nM.

For the molecule `CCC(F)(F)CNC(=O)Nc1ccc2nc(-c3ccccc3)c(-c3ccccc3)cc2c1` [Example 107, 1-(2,2-difluorobutyl)-3-(2,3-diphenylquinolin-6-yl)urea], the IC50 (at human ACSS2; in experiment [1]) was less than 100 nM each time.

Consider `CCC(O)CNC(=O)Nc1ccc2nc(C)c(-c3ccccc3F)c(C(N)=O)c2c1` (centres unmarked) [Example 73, 3-(2-fluorophenyl)-6-(3-(2-hydroxybutyl)ureido)-2-methylquinoline-4-carboxamide], for which the half-maximal inhibitory concentration (IC50) at human ACSS2 was less than 100 nM; in experiment [1], not above 1000 nM.

Consider `CCC(O)CNC(=O)Nc1ccc2nc(-c3ccccc3)c(-c3ccccc3OC)cc2c1` (centres unmarked) [Example 10, 1-(2-hydroxybutyl)-3-(3-(2-methoxyphenyl)-2-phenylquinolin-6-yl)urea], for which the IC50 (on human ACSS2; in experiment [1]) was less than 100 nM each time.

On to `CCC(=O)CCC(=O)Nc1ccc2nc(-c3ccccc3OC)c(-c3ccccc3F)cc2c1` [Example 126, N-(3-(2-fluoro-phenyl)-2-(2-methoxy-phenyl)quinolin-6-yl)-4-oxohexan-amide], for which the IC50 (at human ACSS2; in experiment [1]) was less than 100 nM throughout.

Consider `CC(=O)N1CCN(C(=O)Nc2ccc3nc(-c4ccccc4)c(-c4ccccc4)cc3c2)CC1` [Example 133, 4-acetyl-N-(2,3-diphenylquinolin-6-yl)piperazine-1-carboxamide], for which the figures for the IC50 (at human ACSS2; in experiment [1]) were not above 10000 nM and more than 10000 nM, respectively.

For the molecule `CCC(O)CNC(=O)Nc1ccc2nc(-c3ccccc3OC)c(-c3ccccc3)cc2c1` (centres unmarked) [Example 12, 1-(2-hydroxybutyl)-3-(2-(2-methoxyphenyl)-3-phenylquinolin-6-yl)urea], the IC50 (on human ACSS2; in experiment [1]) was less than 100 nM throughout.

As for `CCC(O)CNC(=O)Nc1ccc2nc(-c3ccccc3)c(-c3ccccc3)c(C#N)c2c1` (centres unmarked) [Example 70, 1-(4-cyano-2,3-diphenylquino-lin-6-yl)-3-(2-hydroxybutyl) urea], the concentration for half-maximal inhibition (IC50) (at human ACSS2; in experiment [1]) was less than 100 nM in each case.

Turning to `CCC(O)CNC(=O)Nc1ccc2nc(CCc3ccccc3)c(-c3ccccc3)cc2c1` (centres unmarked) [Example 56, 1-(2-hydroxybutyl)-3-(2-phenethyl-3-phenylquinolin-6-yl)urea], the IC50 (on human ACSS2; in experiment [1]) was not above 10000 nM throughout.

As to `CC[C@@H](O)CNC(=O)Nc1ccc2nc(-c3ccccc3OC)c(-c3ccccc3F)cc2c1` [Example 35, (R)-1-(3-(2-fluorophenyl)-2-(2-methoxyphenyl)quinolin-6-yl)-3-(2-hydroxybutyl) urea], the IC50 (at human ACSS2; in experiment [1]) was less than 100 nM each time.

Consider `CCC(O)CNC(=O)Nc1ccc2nc(-c3cccc(F)c3)c(-c3ccccc3F)cc2c1` (centres unmarked) [Example 46, 1-(3-(2-fluorophenyl)-2-(3-fluorophenyl)quinolin-6-yl)-3-(2-hydroxybutyl) urea], for which the IC50 (on human ACSS2; in experiment [1]) was less than 100 nM throughout.

`C#Cc1nc2ccc(NC(=O)NCC(O)CC)cc2cc1-c1ccccc1` (centres unmarked) [Example 60, 1-(2-ethynyl-3-phenylquinolin-6-yl)-3-(2-hydroxybutyl) urea]: the IC50 (on human ACSS2; in experiment [1]) was less than 100 nM throughout.

Take `CCC(O)CNC(=O)Nc1ccc2nc(-c3ccccc3)c(-c3ccccc3)c(C(=O)O)c2c1` (centres unmarked) [Example 65, 6-(3-(2-hydroxybutyl)ureido)-2,3-diphenylquino-line-4-carboxylic acid]: the figures for the IC50 (on human ACSS2; in experiment [1]) were less than 100 nM and not above 10000 nM, respectively.

Regarding `CCC(O)CNC(=O)Nc1ccc2nc(-c3cccnc3)c(-c3cccnc3)cc2c1` (centres unmarked) [Example 19, 1-(2,3-di(pyridin-3-yl)quinolin-6-yl)-3-(2-hydroxybutyl) urea], the IC50 at human ACSS2 was less than 100 nM; in experiment [1], not above 10000 nM.

As for `CCC(O)CNC(=O)Nc1ccc2nc(C)c(-c3ccccc3)cc2c1` (centres unmarked) [Example 52, 1-(2-hydroxybutyl)-3-(2-methyl-3-phenylquinolin-6-yl)urea], the IC50 (on human ACSS2; in experiment [1]) was less than 100 nM throughout.

Consider `CCC(O)CNC(=O)Nc1ccc2nc(-c3ccc(=O)[nH]c3)c(-c3ccc(=O)[nH]c3)cc2c1` (centres unmarked) [Example 27, 1-(2,3-bis(6-oxo-1,6-dihydropyridin-3-yl)quinolin-6-yl)-3-(2-hydroxybutyl) urea], for which the IC50 is not above 1000 nM on human ACSS2 and not above 10000 nM in experiment [1].

As for `CCCCNC(=O)Nc1ccc2nc(C)c(-c3ccccc3)cc2c1` [Example 76, 1-butyl-3-(2-methyl-3-phenylquinolin-6-yl)urea], the results for the IC50 (on human ACSS2; in experiment [1]) were not above 1000 nM and less than 100 nM, respectively.

As to `CCC(O)CNC(=O)Nc1ccc2nc(-c3ccccc3OC)c(-c3ccccc3OC)cc2c1` (centres unmarked) [Example 6, 1-(2,3-bis(2-methoxyphenyl)quinolin-6-yl)-3-(2-hydroxybutyl) urea], the IC50 (at human ACSS2; in experiment [1]) was less than 100 nM throughout.

In the case of `O=C(Nc1ccncc1)Nc1ccc2nc(-c3ccccc3)c(-c3ccccc3)cc2c1` [Example 142, 1-(2,3-diphenylquinolin-6-yl)-3-(pyridin-4-yl)urea], the IC50 (at human ACSS2; in experiment [1]) was more than 10000 nM each time.

For `CCC(O)CCC(=O)Nc1ccc2nc(C)c(-c3ccccc3F)cc2c1` (centres unmarked) [Example 129, N-(3-(2-fluorophenyl)-2-methyl-quinolin-6-yl)-4-hydroxy-hexanamide], the half-maximal inhibitory concentration (IC50) (at human ACSS2; in experiment [1]) was less than 100 nM throughout.

In the case of `CCC(O)CNC(=O)Nc1ccc2nc(-c3cnn(C)c3)c(-c3ccccc3)cc2c1` (centres unmarked) [Example 43, 1-(2-hydroxybutyl)-3-(2-(1-methyl-1H-pyrazol-4-yl)-3-phenylquinolin-6-yl)urea], the IC50 is less than 100 nM at human ACSS2 and not above 1000 nM in experiment [1].

On to `CC[C@@H](O)CNC(=O)Nc1ccc2nc(C)c(-c3ccccc3)c(C)c2c1` [Example 113, (R)-1-(2,4-dimethyl-3-phenylquinolin-6-yl)-3-(2-hydroxybutyl) urea], for which the IC50 (on human ACSS2; in experiment [1]) was less than 100 nM throughout.

For the molecule `CC[C@@H](O)CNC(=O)Nc1ccc2nc(-c3ccccc3)c(-c3ccccc3)c(OC)c2c1` [Example 101, (R)-1-(2-Hydroxybutyl)-3-(4-methoxy-2,3-diphenylquinolin-6-yl)urea], the IC50 (on human ACSS2; in experiment [1]) was less than 100 nM in each case.

Take `CCC(O)CNC(=O)Nc1ccc2nc(-c3ccccc3)c(-c3ccccc3)c(C(=O)OC)c2c1` (centres unmarked) [Example 48, methyl 6-(3-(2-hydroxybutyl)ureido)-2,3-diphenylquino-line-4-carboxylate]: the IC50 (on human ACSS2; in experiment [1]) was less than 100 nM in each case.

Take `CCCCCC(=O)Nc1ccc2nc(-c3ccccc3F)c(-c3ccccc3F)cc2c1` [Example 121, N-(2,3-bis(2-fluorophenyl)quinolin-6-yl) hexanamide]: the IC50 on human ACSS2 was less than 100 nM; in experiment [1], not above 1000 nM.

For the molecule `Cn1cc(NC(=O)Nc2ccc3nc(-c4ccccc4)c(-c4ccccc4)cc3c2)cn1` [Example 144, 1-(2,3-diphenylquinolin-6-yl)-3-(1-methyl-1H-pyrazol-4-yl)urea], the half-maximal inhibitory concentration (IC50) at human ACSS2 was not above 1000 nM; in experiment [1] it was less than 100 nM.
